Experiment: In-vivo pharmacokinetic test: ocular distribution of dexamethasone after single administration to the conjunctival sac (LC/MS/MS)
Design: species or system pigmented rabbits
Conditions: treated and non-treated eyes
Description: Dexamethasone concentration in ocular tissues was determined by a LC/MS/MS method.
Two experiments were carried out on male pigmented rabbits weighing 1.8-2.2 kg divided into 2 treatment groups, of which only one eye was treated with: 50 μl of the composition containing dexamethasone sodium phosphate in 1% xanthan base (Group I) or 50 μl of dexamethasone sodium phosphate in solution (Group II). In the first experiment the animals were then killed at the following times: 30, 60, 90, 120, 180 and 240 minutes after treatment (n=6 animals for each time point). In the second experiment the animals were killed at these times: 15, 30 and 60 minutes after treatment (n=4 animals for each time point). The active principle was determined in the aqueous humour, vitreous, retina-choroid and plasma after suitable extraction from the biological tissue, by a LC/MS/MS method.

With `C[C@@H]1C[C@H]2[C@@H]3CCC4=CC(=O)C=C[C@]4(C)[C@@]3(F)[C@@H](O)C[C@]2(C)[C@@]1(O)C(=O)CO` [dexamethasone] the “Concentrations of dexamethasone in the vitreous” value was “less than 10 ng/ml”.

— US20110117189A1, “OPHTHALMIC COMPOSITIONS FOR TREATING PATHOLOGIES OF THE POSTERIOR SEGMENT OF THE EYE” (S.I.F.I. Societa' Industria Farmaceutica Italiana S.P.A., priority 2008, published 2011)
